From US11459586B2, “Methods for increasing efficiency of nuclease-mediated gene editing in stem cells” (President and Fellows of Harvard College, priority 2016, dated 2022)

System: human iPSC
Assay: simultaneous multiplex mThy1 and mCD147 gene replacement in hiPSC
Type: cell-based
From the text: FIGS. 5A-B. Bcl-2 overexpression enables double homozygous targeted gene replacement in human iPSC. FIG. 5A. Mouse Thy1 gene targeting scheme (left). Mouse CD147 gene targeting scheme (right): Two sgRNAs target human BSG (CD147) within intron 1 (Left) or after the polyadenylation site (Right). The mouse CD147 targeting vector plasmid contains mCD147 coding exons 2-7, flanked by hCD147 homology arms outside the sgRNA sites—coding exon 1 (which encodes the signal peptide) is retained but the sgRNA sites are disrupted. FIG. 5B. Plain human iPSC were transfected with 1 μg each of the mThy1 and mCD147 targeting vectors together with a total of 2 μg “Cas9 only sgRNA” or “Cas9 Bcl-2 sgRNA” expression plasmid. Cells were transfected with the following sgRNA combinations: Thy1 Left and CD147 Left, Thy1 Right and CD147 Right, all four Thy1 and CD147 sgRNAs, or Negative sgRNA #1. Nine days later, cells were analyzed by flow cytometry for mThy1, hThy1, mCD147, and hCD147 expression. Upper two plots show the percent of Thy1 or CD147 gene replacement as gated on all live single iPSC. Lower four plots show the percent of CD147 gene replacement as gated on the Thy1 gene targeting quadrants. Results are representative of four independent experiments.
The U6 promoter-sgRNA (for each sgRNA sequence) was cloned into the EF1α promoter-Cas9 nuclease or EF1α promoter-Cas9 nuclease-IRES-Bcl-2 expression plasmids to form the “Cas9 only sgRNA” or “Cas9 Bcl-2 sgRNA” plasmids used in Examples 6 and 7.
Previously, low gene targeting frequencies in hiPSC could be overcome by clever enrichment or selection schemes. However, for simultaneous multiplex gene targeting, a higher absolute frequency is needed. […] Plain hiPSC were transfected with both mThy1 and mCD147 targeting vectors together with the “Cas9 only sgRNA” or “Cas9 Bcl-2 sgRNA” plasmids. Combinations of both Left sgRNAs, both Right sgRNAs, all four sgRNAs, or a negative control sgRNA were used. Cultures were then analyzed by flow cytometry for hThy1, mThy1, hCD147, and mCD147 expression. […] When cell populations were gated on homozygous mThy1 gene replacement (red) and then analyzed for mCD147 gene replacement, we found an enrichment of mCD147 events, rather than an independent assortment of gene editing outcomes. Likewise, when all four sgRNAs were transfected, the mThy1^−hThy1^− double negative population (blue) contained an enriched proportion of mCD147^−hCD147^− cells. Even considering an overall transfection rate of 60-70%, these enrichments indicate that hiPSC may be poised for either HR or NHEJ at various periods. With Bcl-2, the frequency of HR-mediated double homozygous gene replacements (mThy1^+hThy1^− mCD147^+hCD147^−) increased by an order of magnitude (Left sgRNAs: from 0.02% to 0.16%; Right sgRNAs: from 0.01% to 0.37%). […]

Bcl-2: B cell lymphoma 2 protein, anti-apoptotic, overexpressed from lentivirus or Cas9 plasmid
frequency of HR-mediated double homozygous gene replacements (mThy1+hThy1- mCD147+hCD147-) (Left sgRNAs, with Bcl-2 (from 0.02% without)): 0.16%
frequency of HR-mediated double homozygous gene replacements (mThy1+hThy1- mCD147+hCD147-) (Right sgRNAs, with Bcl-2 (from 0.01% without)): 0.37%
NHEJ-mediated quadruple-negative deletions (mThy1-hThy1- mCD147-hCD147-) (all four sgRNAs, with Bcl-2 (from 0.7% without)): 1.1%
gene editing frequencies (multiplex mThy1 and mCD147 targeting, every sgRNA combination): improved gene editing frequencies
